Measured values published in ChEMBL document CHEMBL1201862, “PubChem BioAssay data set” (2004).
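A five-concentration, 48-hour dose response in 96-well plates underlies each endpoint, interpolated linearly between surrounding concentrations. GI50 = concentration required for 50% inhibition of growth.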 The source made the active and inactive calls. Cut-off read from the data, not from the text of the source: active = GI50 up to about 1.1 µM and inactive = higher.

Experiments:
Experiment in all cases: growth of human tumour cells (NCI), 48 h
A498 = tested on: A498
ACHN = tested on: ACHN
HCC 2998 = tested on: HCC 2998
HCT-116 = tested on: HCT-116
HL-60 = tested on: HL-60
HOP-92 = tested on: HOP-92
LOX IMVI = tested on: LOX IMVI
MOLT-4 = tested on: MOLT-4
Malme-3M = tested on: Malme-3M
NCI-H460 = tested on: NCI-H460
OVCAR-4 = tested on: OVCAR-4
OVCAR-5 = tested on: OVCAR-5
OVCAR-8 = tested on: OVCAR-8
SK-MEL-2 = tested on: SK-MEL-2
SK-MEL-5 = tested on: SK-MEL-5
SN12C = tested on: SN12C
UACC-62 = tested on: UACC-62
UO-31 = tested on: UO-31
EKVX = tested on: EKVX
OVCAR-3 = tested on: OVCAR-3

Measured: GI50

O=C(O)C1c2ccccc2C(C(=O)O)c2ccccc21 (stereo not given)
inactive: A498 > 100 µM | ACHN > 100 µM | HCC 2998 > 100 µM | HCT-116 > 100 µM | HL-60 > 100 µM | HOP-92 > 100 µM | LOX IMVI > 100 µM | MOLT-4 > 100 µM | Malme-3M > 100 µM | NCI-H460 > 100 µM | OVCAR-4 > 100 µM | OVCAR-5 > 100 µM | OVCAR-8 > 100 µM | SK-MEL-2 > 100 µM | SK-MEL-5 > 100 µM | SN12C > 100 µM | UACC-62 > 100 µM | UO-31 > 100 µM

C[C@@H]1S[C@H](c2c(Cl)cccc2Cl)N2Cc3ccccc3N=C12
inactive: A498 > 100 µM | ACHN > 100 µM | EKVX 42.9 µM | HCC 2998 > 100 µM | HCT-116 11.5 µM | HL-60 48.4 µM | HOP-92 > 100 µM | LOX IMVI > 100 µM | MOLT-4 > 100 µM | NCI-H460 > 100 µM | OVCAR-3 > 100 µM | OVCAR-4 > 100 µM | OVCAR-5 > 100 µM | SK-MEL-2 > 100 µM | SK-MEL-5 > 100 µM | SN12C > 100 µM | UACC-62 97.3 µM | UO-31 > 100 µM

CSc1c(C#N)c(O)n(-c2ccc(C)cc2)c(=O)c1C#N
inactive: A498 > 100 µM | EKVX > 100 µM | HCC 2998 > 100 µM | HCT-116 > 100 µM | HL-60 > 100 µM | HOP-92 > 100 µM | LOX IMVI > 100 µM | MOLT-4 > 100 µM | Malme-3M > 100 µM | NCI-H460 > 100 µM | OVCAR-3 > 100 µM | OVCAR-4 > 100 µM | OVCAR-5 > 100 µM | OVCAR-8 > 100 µM | SK-MEL-2 > 100 µM | SK-MEL-5 > 100 µM | SN12C > 100 µM | UACC-62 > 100 µM | UO-31 > 100 µM

O=S1(=O)C(=C(c2ccccc2)c2ccccc2)S(=O)(=O)c2ccccc21
inactive: A498 > 74.3 µM | EKVX > 100 µM | HCC 2998 97.1 µM | HCT-116 > 100 µM | HL-60 > 100 µM | HOP-92 20.6 µM | LOX IMVI > 100 µM | MOLT-4 > 100 µM | Malme-3M 53.1 µM | NCI-H460 > 100 µM | OVCAR-3 > 57.9 µM | OVCAR-4 83.6 µM | OVCAR-5 > 100 µM | OVCAR-8 > 100 µM | SK-MEL-2 > 100 µM | SK-MEL-5 > 89.7 µM | SN12C > 100 µM | UACC-62 > 72.1 µM | UO-31 > 100 µM

O=C1C(Cl)=C(Cl)C(=O)N1C1C2CC3CC(C2)CC1C3 (stereo not given)
inactive: A498 > 100 µM | ACHN > 100 µM | EKVX > 100 µM | HCC 2998 > 100 µM | HCT-116 > 100 µM | HL-60 24.5 µM | HOP-92 > 100 µM | LOX IMVI > 100 µM | MOLT-4 21.4 µM | Malme-3M > 100 µM | NCI-H460 > 100 µM | OVCAR-4 > 100 µM | OVCAR-5 > 100 µM | OVCAR-8 > 76.4 µM | SK-MEL-2 > 100 µM | SK-MEL-5 > 100 µM | SN12C > 100 µM | UACC-62 > 100 µM | UO-31 > 100 µM

COc1ccc(/C=C2\Sc3nnc(CNc4ccc(Cl)cc4)n3N=C2c2cc(F)c(Cl)cc2Cl)cc1OC
inactive: A498 > 100 µM | ACHN 48.4 µM | EKVX > 100 µM | HCC 2998 31 µM | HCT-116 14.8 µM | HL-60 45.7 µM | HOP-92 17 µM | LOX IMVI 29.3 µM | MOLT-4 10.9 µM | NCI-H460 53.6 µM | OVCAR-3 48.1 µM | OVCAR-4 22.5 µM | OVCAR-5 88.9 µM | OVCAR-8 24.7 µM | SK-MEL-2 > 100 µM | SK-MEL-5 > 100 µM | UO-31 56.9 µM

Cc1ccc(C(=O)N/N=C(\N=N\c2ccccc2)c2ccc(N(CCC#N)CCC#N)cc2C)cc1
inactive: A498 > 100 µM | ACHN > 100 µM | EKVX 74.6 µM | HCC 2998 > 100 µM | HL-60 > 100 µM | HOP-92 > 100 µM | LOX IMVI 99.1 µM | MOLT-4 > 100 µM | NCI-H460 > 100 µM | OVCAR-3 39.2 µM | OVCAR-4 65.5 µM | OVCAR-5 > 100 µM | OVCAR-8 38 µM | SK-MEL-2 69.8 µM | SK-MEL-5 31.8 µM | UACC-62 38.8 µM | UO-31 > 100 µM

O=C(NCCN(CCNC(=O)c1cccc(=O)n1O)CCN(CCNC(=O)c1cccc(=O)n1O)CCNC(=O)c1cccc(=O)n1O)c1cccc(=O)n1O
inactive: A498 > 100 µM | ACHN > 100 µM | HCC 2998 > 100 µM | HCT-116 > 100 µM | HL-60 44.2 µM | HOP-92 > 100 µM | LOX IMVI > 100 µM | Malme-3M 60.8 µM | NCI-H460 > 100 µM | OVCAR-3 > 100 µM | OVCAR-4 > 100 µM | OVCAR-5 > 100 µM | OVCAR-8 > 100 µM | SK-MEL-2 > 100 µM | SK-MEL-5 > 100 µM | SN12C > 100 µM | UACC-62 > 100 µM | UO-31 > 100 µM
